Reference: patent US10501499B2 (priority 2012, dated 2019)

Columns and labels:
human PBMCs [1] = assay type: cell-based
human PBMCs [2] = assay type: cell-based; remark: listed apart in the source

RGYLPAVGAPIRRVIRVIAHGLRL [BI310-511g] was tested, and the “Extracellular Uptake” value (human PBMCs [1]) was 171.31 and the “Intracellular Uptake” value (human PBMCs [2]) was 66.74.
“RGTANWARVISRRANWAKVILRNWAKVI [BI330-83b]” was tested, and the “Extracellular Uptake” value (human PBMCs [1]) was 518.60 and the “Intracellular Uptake” value (human PBMCs [2]) was 120.10.
RRGYLPAVGAPIRRRVIRVIAHGLRL [BI310-511c] was tested, and the “Extracellular Uptake” value (human PBMCs [1]) was 203.62 and the “Intracellular Uptake” value (human PBMCs [2]) was 31.83.
For “RGTANWARVISRGANWAKVILRNWAKVI [BI330-83d]”, the “Extracellular Uptake” value (human PBMCs [1]) was 267.38 and the “Intracellular Uptake” value (human PBMCs [2]) was 52.14.
RGYLPAVGAPIRRRVIRVIAHGLRLR [BI310-511] was tested, and the “Extracellular Uptake” value (human PBMCs [1]) was 227.46 and the “Intracellular Uptake” value (human PBMCs [2]) was 22.62.
RRGYLPAVGAPIRRVIRVIAHGLRLR [BI310-511b] was tested, and the “Extracellular Uptake” value (human PBMCs [1]) was 466.71 and the “Intracellular Uptake” value (human PBMCs [2]) was 67.29.
RGYLPAVGAPIRVIRVIAHGLRLR [BI310-511f] was tested, and the “Extracellular Uptake” value (human PBMCs [1]) was 178.61 and the “Intracellular Uptake” value (human PBMCs [2]) was 26.85.
In the case of RGTANWARVISRANWAKVILRNWAKVI [BI330-83c], the “Extracellular Uptake” value (human PBMCs [1]) is reported as 435.66 and the “Intracellular Uptake” value (human PBMCs [2]) is reported as 154.43.
For RGYLPAVGAPIRRVIRVIAHGLRLR [BI310-511e], the “Extracellular Uptake” value (human PBMCs [1]) was 473.80 and the “Intracellular Uptake” value (human PBMCs [2]) was 44.59.
In the case of RRGTANWARVISRANWAKVILRNWAKVI [BI330-83], the “Extracellular Uptake” value (human PBMCs [1]) is reported as 364.04 and the “Intracellular Uptake” value (human PBMCs [2]) is reported as 194.69.
In the case of RRGYLPAVGAPIRRVIRVIAHGLRL [BI310-511d], the “Extracellular Uptake” value (human PBMCs [1]) is reported as 267.15 and the “Intracellular Uptake” value (human PBMCs [2]) is reported as 70.64.
